Assay results published in ChEMBL document CHEMBL1201862, “PubChem BioAssay data set” (2004).
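1) Cells in 96-well plates. 2) Compound, 48 h, 5 concentrations. 3) Linear interpolation between surrounding doses. 4) Unreached endpoint = highest concentration. GI50 marks 50% less growth.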 Active and inactive are the calls of the source. Rule as the data show it: active = GI50 up to about 1.1 µM and inactive = higher.

Legend:
Assay in all cases: NCI-60 cell line screen, 48 h
K562 = test system: K562
MCF7 = test system: MCF7
NCI-H460 = test system: NCI-H460
SN12C = test system: SN12C
SK-OV-3 = test system: SK-OV-3
SR = test system: SR
A549 = test system: A549
COLO 205 = test system: COLO 205
RPMI-8226 = test system: RPMI-8226
KM12 = test system: KM12
A498 = test system: A498
BT-549 = test system: BT-549
SNB-75 = test system: SNB-75
EKVX = test system: EKVX
MOLT-4 = test system: MOLT-4
HT-29 = test system: HT-29
U-251 = test system: U-251
HL-60 = test system: HL-60
CCRF-CEM = test system: CCRF-CEM

Measured: GI50

COc1ccc(/C=C(\NC(=O)c2ccccc2)C(=O)NN(C)c2ccnc3cc(Cl)ccc23)cc1OC
inactive: K562 18.9 µM | MCF7 19.8 µM | NCI-H460 19 µM | SN12C 25.9 µM | SK-OV-3 > 100 µM | SR 16.2 µM | A549 33 µM | COLO 205 24.2 µM | RPMI-8226 20 µM | KM12 17.6 µM | A498 > 100 µM | BT-549 20.4 µM | SNB-75 32.2 µM | EKVX 50.7 µM | MOLT-4 18.2 µM | HT-29 34.7 µM | U-251 19.7 µM

NC(=O)NCCSC1CCCCC1O (configuration not stated)
inactive: K562 > 100 µM | MCF7 > 100 µM | NCI-H460 > 100 µM | SN12C > 100 µM | SK-OV-3 > 100 µM | SR > 100 µM | A549 > 100 µM | COLO 205 > 100 µM | RPMI-8226 > 100 µM | KM12 > 100 µM | A498 > 100 µM | BT-549 > 100 µM | SNB-75 > 100 µM | EKVX > 100 µM | MOLT-4 26.2 µM | HT-29 > 100 µM | U-251 > 100 µM

Cc1cc(NS(=O)(=O)c2ccc(NC(=O)c3ccc4[nH]c5ccccc5c(=O)c4c3)cc2)no1
inactive: K562 > 100 µM | MCF7 > 100 µM | NCI-H460 > 100 µM | SN12C > 100 µM | SK-OV-3 > 100 µM | SR > 100 µM | A549 > 100 µM | COLO 205 > 100 µM | RPMI-8226 > 100 µM | KM12 44.1 µM | HL-60 > 100 µM | BT-549 > 100 µM | SNB-75 > 100 µM | EKVX > 100 µM | MOLT-4 49.8 µM | HT-29 > 100 µM | U-251 47.4 µM | CCRF-CEM 40.9 µM

NC(=O)c1csc(C2(O)COC(CO)C2O)n1 (configuration not stated)
inactive: MCF7 > 100 µM | NCI-H460 > 100 µM | SN12C > 100 µM | SK-OV-3 > 100 µM | SR > 100 µM | A549 > 100 µM | COLO 205 > 100 µM | RPMI-8226 > 100 µM | KM12 > 100 µM | A498 > 100 µM | BT-549 > 100 µM | SNB-75 > 100 µM | EKVX > 100 µM | HT-29 > 100 µM | U-251 > 100 µM | CCRF-CEM > 100 µM

CC(NC(=O)/C(=C/c1ccccc1O)NC(=O)c1ccccc1)C(=O)O (configuration not stated)
inactive: K562 > 100 µM | MCF7 5.85 µM | NCI-H460 24.5 µM | SN12C 21.6 µM | SK-OV-3 19.4 µM | A549 43.1 µM | COLO 205 > 100 µM | RPMI-8226 > 100 µM | KM12 16.8 µM | HL-60 > 100 µM | A498 > 100 µM | BT-549 18.9 µM | SNB-75 15.4 µM | EKVX 18.8 µM | MOLT-4 > 100 µM | HT-29 73.5 µM | U-251 50.5 µM | CCRF-CEM > 100 µM

O=C(O)c1cc2ccccc2c2c1C(=O)c1ccccc1-2
inactive: K562 > 100 µM | MCF7 98.9 µM | NCI-H460 > 100 µM | SN12C 75 µM | SK-OV-3 56.6 µM | SR 99.8 µM | A549 75.9 µM | COLO 205 > 100 µM | RPMI-8226 65.8 µM | KM12 > 100 µM | HL-60 > 100 µM | BT-549 > 100 µM | SNB-75 > 100 µM | MOLT-4 > 100 µM | HT-29 > 100 µM | U-251 > 100 µM | CCRF-CEM > 100 µM

CC1(C)OCC2OC3([C@H]4OC(C)(C)O[C@@H]4CO)OC(C)(C)OC3C2O1 (some centres not stated)
inactive: K562 > 100 µM | MCF7 > 100 µM | NCI-H460 > 100 µM | SN12C > 100 µM | SR > 100 µM | A549 > 100 µM | COLO 205 > 100 µM | RPMI-8226 > 100 µM | KM12 > 100 µM | A498 > 100 µM | BT-549 > 100 µM | SNB-75 > 100 µM | EKVX > 100 µM | MOLT-4 > 100 µM | HT-29 > 100 µM | U-251 > 100 µM | CCRF-CEM > 100 µM

CCOC(=O)Cc1nc2c(O)ncnc2n1C1OC(COC(C)=O)C(OC(C)=O)C1OC(C)=O (configuration not stated)
inactive: K562 > 100 µM | MCF7 > 100 µM | NCI-H460 > 100 µM | SN12C > 100 µM | SK-OV-3 > 100 µM | A549 > 100 µM | COLO 205 > 100 µM | RPMI-8226 > 100 µM | KM12 > 100 µM | HL-60 > 100 µM | A498 > 100 µM | BT-549 > 100 µM | SNB-75 > 100 µM | EKVX > 100 µM | MOLT-4 > 100 µM | HT-29 > 100 µM | U-251 > 100 µM | CCRF-CEM > 100 µM

O=c1onc2c3ccccc3ncn12
inactive: K562 > 100 µM | MCF7 > 100 µM | SN12C > 100 µM | SK-OV-3 > 100 µM | SR > 100 µM | A549 > 100 µM | COLO 205 > 100 µM | RPMI-8226 > 100 µM | KM12 > 100 µM | A498 > 100 µM | BT-549 > 100 µM | SNB-75 > 100 µM | EKVX > 100 µM | MOLT-4 > 100 µM | HT-29 > 100 µM | U-251 > 100 µM | CCRF-CEM > 100 µM

Cc1c2c(C(N)=O)nccc2c(C)c2c1c1ccccc1n2Cc1ccccc1
inactive: K562 22.7 µM | MCF7 37 µM | NCI-H460 11.6 µM | SN12C 17.7 µM | SK-OV-3 22.9 µM | A549 14.8 µM | COLO 205 > 10 µM | RPMI-8226 26.8 µM | KM12 21.6 µM | HL-60 23.3 µM | A498 21 µM | BT-549 29.3 µM | SNB-75 5.33 µM | EKVX 43.6 µM | MOLT-4 32.7 µM | HT-29 18.8 µM | U-251 9.04 µM | CCRF-CEM 23.3 µM

CC(=O)N1c2ccccc2C(C)(C)OC1C(Cl)(Cl)Cl (configuration not stated)
inactive: MCF7 23.6 µM | NCI-H460 33.3 µM | SN12C 29.9 µM | SK-OV-3 37.8 µM | A549 27.7 µM | COLO 205 30.3 µM | RPMI-8226 14.1 µM | KM12 30.1 µM | HL-60 16.8 µM | A498 37 µM | BT-549 35.8 µM | SNB-75 17.1 µM | EKVX 26.2 µM | MOLT-4 14.4 µM | HT-29 24.2 µM | U-251 33.3 µM | CCRF-CEM 27.7 µM

CC(=O)OCC1OC(n2c(N)c(C#N)c(-c3ccc(C)cc3)c(C#N)c2=S)C(OC(C)=O)C(OC(C)=O)C1OC(C)=O (configuration not stated)
inactive: K562 40.5 µM | MCF7 20.1 µM | NCI-H460 31.4 µM | SN12C 15.6 µM | SK-OV-3 24.5 µM | A549 16 µM | COLO 205 16 µM | RPMI-8226 29.2 µM | KM12 79.1 µM | HL-60 87.5 µM | A498 39.9 µM | BT-549 37.3 µM | SNB-75 16 µM | EKVX 18.3 µM | HT-29 18.7 µM | U-251 17 µM | CCRF-CEM 35.2 µM
